Measurements published in US5002948A, “3-[4-[4-substituted-1-piperazinyl]-1-butyl]-1H-2,3-dihydroindoles” (H. Lundbeck A/S, priority 1988, dated 1991).

Key:
Assay type in all cases: in vivo, Male Wistar rats
5-HT1A [1] = molecular target: T1, 5-HT1A (Rattus norvegicus, UniProt P19327); experiment: Antagonism of the discriminative stimulus properties induced by 8-OHDPAT in rats; set-up: from tissue; host or cells: whole living animal, male Wistar rats, s.c. dosing; conditions: rat, sc, s.c. before 8-OHDPAT; rats trained at 0.4 mg/kg i.p.; inhibition of drug responding; read-out: ED50, 8-OH DPAT cue antagonism
T1 sequence (P19327 1-422): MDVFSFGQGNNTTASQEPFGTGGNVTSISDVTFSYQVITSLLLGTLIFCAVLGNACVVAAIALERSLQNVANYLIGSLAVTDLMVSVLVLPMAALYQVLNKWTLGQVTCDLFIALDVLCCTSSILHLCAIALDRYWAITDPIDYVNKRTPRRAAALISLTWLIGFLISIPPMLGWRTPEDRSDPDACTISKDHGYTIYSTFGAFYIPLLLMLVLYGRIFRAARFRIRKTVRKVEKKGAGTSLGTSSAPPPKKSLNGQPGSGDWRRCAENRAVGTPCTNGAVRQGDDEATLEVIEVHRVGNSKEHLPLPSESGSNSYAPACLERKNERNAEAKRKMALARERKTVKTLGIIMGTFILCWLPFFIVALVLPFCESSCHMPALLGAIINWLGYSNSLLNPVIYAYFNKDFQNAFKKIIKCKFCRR
Description: ANTAGONISM OF THE DISCRIMINATIVE STIMULUS PROPERTIES INDUCED BY 8-OHDPAT IN RATS.
This test model is used to determine the antagonist effects of a test compound on 5-HT1A receptors in vivo. A related method is described by Tricklebank, M. D., J. Neill, E. J. Kidd and J. R. Fozard, Eur. J. Pharmacol. 133, 47-56, 1987; Arnt. J., Pharmacology & Toxicology 64, 165-172, 1989.
Male Wistar rats are trained to discriminate between 8-OHDPAT (0.4 mg/kg, i.p., 15 min. pretreatment) and physiological saline in operant chambers equipped with two response levers. Between the levers a dipper is placed, where water rewards (0.1 ml) are presented. The rats are water deprived for at least 24 h and work in a fixed ratio (FR) schedule (final FR=32).
Following 8-OHDPAT administration responding is reinforced only on a designated (drug) lever, whereas responding on the opposite lever has no consequences. Following saline administration responding is reinforced on the lever opposite to the drug lever. Drug and saline trials alternate randomly between training days, although the same treatment is given maximally at 3 consecutive days. The level of discrimination occuracy is expressed as the per cent drug responses and is calculated as the number of correct responses×100 divided by the sum of the correct and incorrect responses before the first reward. When stable occuracy (mean correct responding=90 per cent; individual rats at least 75 per cent correct responding) is obtained test sessions are included between training days. Test compound is injected s.c. at appropriate time before 8-OHDPAT and the test begins 15 min after 8-OHDPAT injection. The test trial is terminated when a total of 32 responses are made on either lever or when 20 min have elapsed. No reward is given and the rats have free access to water for 20-30 min after the test. The effects are expressed as per cent inhibition of drug responding. Only results from rats making at least 10 responses on one lever are included in data analysis. Furthermore, only test sessions in which at least half of the rats respond are included.
The per cent inhibition of drug response obtained for each dose of test compound is used to calculate ED50 values by log-probit analysis.

5-HT1A [2] = molecular target: T1, 5-HT1A; experiment: Generalization to discriminative stimulus properties induced by 8-OHDPAT in rats (agonism); set-up: from tissue; host or cells: whole living animal, male Wistar rats, s.c. dosing; conditions: rat, sc, usually 30 or 45 min before test; substituted for 8-OHDPAT; per cent drug response; read-out: ED50, 8-OH DPAT cue agonism
Excerpt: GENERALIZATION TO DISCRIMINATIVE STIMULUS PROPERTIES INDUCED BY 8-OHDPAT IN RATS.
This test model is used to determine the agonist effects of a test compound on 5-HT1A receptors in vivo. A related method is described by Tricklebank, M. D., J. Neill, E. J. Kidd and J. R. Fozard, Eur. J. Pharmacol. 133, 37-56, 1987; Arnt, J., Pharmacology & Toxicology 64, 165-172, 1989.
The procedure is the same as for the antagonism test mentioned above, except that the test compound is substituted for 8-OHDPAT and injected s.c. usually 30 minutes or 45 minutes respectively before beginning of the test.
The per cent drug response obtained for each dose of test compound is used to calculate ED50 values by log-probit analysis.

5-HT1A [3] = molecular target: T1, 5-HT1A; experiment: Inhibition of 5-methoxy-N,N-dimethyltryptamine (5-MeODMT) induced 5-HT syndrome in rats; set-up: Male Wistar rats (Mol:Wist) weighing 170-240 g are used; from tissue; host or cells: whole living animal, male Wistar rats (Mol:Wist), s.c. dosing; conditions: rat, sc
Excerpt: INHIBITION OF 5-METHOXY-N,N-[…] INDUCED 5-HT SYNDROME IN RATS
The so-called 5-HT syndrome is a characteristic behaviour pattern which is induced by 5-HT agonists with effects on 5-HT, possibly 5-HT1A receptors, although lack of specific antagonists make it difficult to evaluate specificity (Smith, L. M. and S. J. Peroutka, Pharmacol. Biochem. & Behaviour 24, 1513-1519, 1986; Tricklebank, M. et al., Eur. J. Pharmacol. 117, 15-24, 1985).
Male Wistar rats (Mol:Wist) weighing 170-240 g are used. Test substrate is injected subcutaneously 30 min. before 5-methoxy-N,N-dimethyltryptamine 5 mg/kg, s.c. Four rats are used for each dose. A control group pretreated with saline is included each test day. Ten, 15 and 20 min later the rats are observed for presence of serotonin (5-HT) syndrome: (1) forepaw treading ("piano playing"), (2) head weaving and (3) hindleg abduction. Further, flat motility is scored. Each part of the syndrome is scored as follows: marked effect (score 2), weak syndrome (score 1) and no effect (score 0). The scores of the three observation times are added. Thus the maximum obtainable score for four rats is 24. The effect of the test substance is expressed as per cent inhibition relative to the control group.
The per cent inhibition of the piano playing syndrome is used as the response, and ED50 values are calculated by log-prohibit analysis.

## O=C1CC2(CCCC2)CC(=O)N1CCCCN1CCN(c2ncccn2)CC1 [buspirone, reference compound]
5-HT1A [1]
  ED50: > 0.8 µmol/kg
5-HT1A [2]
  ED50: 0.62 µmol/kg
5-HT1A [3]
  ED50: 4.3 µmol/kg
